Assays:
RA-FLS cells [1] = experiment: Cytokine/chemokine proteome array, LPS-stimulated RA-FLS cells; type: cell-based, human; details: takinib 10 μM
Experimental: (§1) Rheumatoid arthritis fibroblast-like synoviocytes (RA-FLS) cells were prepared from surgical synovial samples at the University of Michigan as previously described. Cells were isolated from 4 individual patients (3 female, 1 male) and passaged no more than 2 times before use. Cells were cultured in CRML media, 10% FBS, 1% penicillin-streptomycin (PS), and 1% glutamate.
[…] Twenty-four hours after treatment, supernatant was added to Human Cytokine proteome array (R&D Systems). Cytokine kit was conducted in accordance with manufacturer protocol. Chemiluminescence was used to visualize protein quantities.

CIA mice = experiment: CIA mouse model: joint histopathology scores, day 36; type: in vivo, DBA/1 mice
From the text: After 1–2 days in fixative and 4–5 days in 5% formic acid for decalcification, tissues were trimmed and processed for paraffin embedding. Paws were embedded in paraffin in the frontal plane, and the knees were embedded with the patella facing down. Ankles, if left attached to the hind paw, were also embedded in the frontal plane but may be detached and sectioned in the sagittal plane for special purposes. Left/right pairs were typically embedded in the same block. Sections were cut and stained with toluidine blue.
The paw score criteria were as follows: 0 = Normal. 0.5 = Very minimal, affects only 1 joint or minimal multifocal periarticular infiltration of inflammatory cells. 1 = Minimal infiltration of inflammatory cells in synovium and periarticular tissue of affected joints. 2 = Mild infiltration of inflammatory cells. When referring to paws, generally restricted to affected joints (1–3 affected). 3 = Moderate infiltration with moderate edema. When referring to paws, restricted to affected joints, generally 3–4 joints and the wrist or ankle. 4 = Marked infiltration affecting most areas with marked edema, 1 or 2 unaffected joints may be present. 5 = Severe diffuse infiltration with severe edema affecting all joints (to some extent) and periarticular tissues.
The knee score criteria were as follows: 0 = Normal. 0.5 = Very minimal, affects only one area of the synovium or minimal multifocal periarticular infiltration of inflammatory cells. 1 = Minimal infiltration of inflammatory cells in synovium and periarticular tissue of affected synovial areas. 2 = Mild diffuse infiltration of inflammatory cells. 3 = Moderate diffuse infiltration of inflammatory cells. 4 = Marked diffuse infiltration of inflammatory cells. 5 = Severe diffuse infiltration of inflammatory cells.
The cartilage damage score criteria were as follows: 0 = Normal. 0.5 = Very minimal = Affects marginal zones only of one to several areas (knees) or joints (paws). 1 = Minimal = Generally minimal to mild loss of toluidine blue staining (proteoglycan) with no obvious chondrocyte loss or collagen disruption in affected joints/areas. 2 = Mild = Generally mild loss of toluidine blue staining (proteoglycan) with focal areas of chondrocyte loss and/or collagen disruption in some affected joints/areas. Paws may have one or two digit joints with near total to total loss of cartilage. 3 = Moderate = Generally moderate loss of toluidine blue staining (proteoglycan) with multifocal chondrocyte loss and/or collagen disruption in affected joints/areas. Paws may have three or four joints with near total or total loss. In the knee, some matrix remains on any affected surface with areas of severe matrix loss. 4 = Marked = Marked loss of toluidine blue staining (proteoglycan) with multifocal marked (depth to deep zone or tidemark) chondrocyte loss and/or collagen disruption in most joints with a few unaffected or mildly affected. In the knee, one surface with total to near total cartilage loss. 5 = Severe = Severe diffuse loss of toluidine blue staining (proteoglycan) with severe (depth to tide mark) chondrocyte loss and/or collagen disruption in most or all joints.

RA-FLS cells [2] = experiment: NF-κB signaling protein array, TNF-stimulated RA-FLS cells; type: cell-based, human; details: TNF 30 ng/mL 24 h
Experimental: as §1
(§2) Briefly, 10^6 cells were plated and either no treatment (naïve) or pretreated with takinib (10 μM) or vehicle (DMSO) for 30 min prior to stimulation with TNF (30 ng/mL) for 30 min at 37 °C in 5% CO2 for phospho-kinase assay (R&D Systems). NF-κB and cytokine assays were performed as previously described; however, cells were incubated for 24 h post-TNF (30 ng/mL) or LPS (10 ng/mL) stimulation.

RA-FLS cells [3] = experiment: Cytokine/chemokine proteome array, TNF-stimulated RA-FLS cells; type: cell-based, human; details: takinib 10 μM, TNF 30 ng/mL 24 h
Experimental: as §1
RA-FLS cells were activated by addition of LPS 10 ng/mL in the presence or absence of 10 μM takinib or DMSO. Twenty-four hours after treatment, supernatant was added to Human Cytokine proteome array (R&D Systems). Cytokine kit was conducted in accordance with manufacturer protocol. Chemiluminescence was used to visualize protein quantities.
as §2

CCCn1/c(=N/C(=O)c2cccc(C(N)=O)c2)[nH]c2ccccc21 [takinib]
MIF protein level (RA-FLS cells [1]): No significant changes | Serpin E1 protein level (RA-FLS cells [1]): No significant changes | CXCL1 level (RA-FLS cells [1]; p < 0.0003): significantly downregulated | CCL2 level (RA-FLS cells [1]; p < 0.0009): significantly downregulated | reduction of IL-8 (RA-FLS cells [1]; p < 0.006): 57% | reduction of IL-6 (RA-FLS cells [1]; p < 0.055): 33% | reduction of disease burden (CIA mice; 50 mg/kg daily (discussion)): ~ 40% | reduction of overall periosteal bone width vs vehicle (CIA mice; 50 mg/kg daily, all joints, p = 0.06): 35% | reduction of overall sum score of knees (CIA mice; 50 mg/kg daily, day 36): ~ 40% | cartilage damage score, all joints (CIA mice; 50 mg/kg daily, day 36, p = 0.013): significantly reduced | inflammation score, all joints (CIA mice; 50 mg/kg daily, day 36, p = 0.019): significantly reduced | reduction of overall joint pathology (all joints summed histological score) vs vehicle (CIA mice; 50 mg/kg daily, day 36, p = 0.02): ~ 30% | average reduction in disease pathology, hind paws and forepaws (CIA mice; 50 mg/kg daily, inflammation, pannus, cartilage damage, bone resorption, periosteal bone formation): 20–30% | histological score of cartilage damage, knees (CIA mice; 50 mg/kg daily, p = 0.0042): significantly reduced | histological score of inflammation, knees (CIA mice; 50 mg/kg daily, p = 0.0044): significantly reduced | reduction of bone resorption histological score, knees (CIA mice; 50 mg/kg daily, trend): ~ 40% | reduction of pannus histological score, knees (CIA mice; 50 mg/kg daily, trend): ~ 40% | overall sum histological score, hind paws (CIA mice; 50 mg/kg daily, vs vehicle, p = 0.0078): reduced | overall sum histological score, forepaws (CIA mice; 50 mg/kg daily, vs vehicle, p = 0.0091): reduced | ASC expression, array signal, Mean (RA-FLS cells [2]; takinib 10 μM, n=4): 29.77 | BCL10 expression, array signal, Mean (RA-FLS cells [2]; takinib 10 μM, n=4): 15.76 | CARD6 expression, array signal, Mean (RA-FLS cells [2]; takinib 10 μM, n=4): 15.29 | CD40/TNFRSFS expression, array signal, Mean (RA-FLS cells [2]; takinib 10 μM, n=4): 23.956 | FADD/MORT1 expression, array signal, Mean (RA-FLS cells [2]; takinib 10 μM, n=4): 36.45 | Fas/TNFRSF6/CD95 expression, array signal, Mean (RA-FLS cells [2]; takinib 10 μM, n=4): 172.1241 | IKK1/IKKα/CHUK expression, array signal, Mean (RA-FLS cells [2]; takinib 10 μM, n=4): 55.68 | IKK2/IKKβ expression, array signal, Mean (RA-FLS cells [2]; takinib 10 μM, n=4): 112.6481 | IKKγ/NEMO expression, array signal, Mean (RA-FLS cells [2]; takinib 10 μM, n=4): 107.307 | IL-1 RI expression, array signal, Mean (RA-FLS cells [2]; takinib 10 μM, n=4): 21.68 | IL-17 RA expression, array signal, Mean (RA-FLS cells [2]; takinib 10 μM, n=4): 19.1835 | IL-18 Rα expression, array signal, Mean (RA-FLS cells [2]; takinib 10 μM, n=4): 17.5855 | IRAK1 expression, array signal, Mean (RA-FLS cells [2]; takinib 10 μM, n=4): 26.78 | IRF5 expression, array signal, Mean (RA-FLS cells [2]; takinib 10 μM, n=4): 16.411 | IRF8 expression, array signal, Mean (RA-FLS cells [2]; takinib 10 μM, n=4): 17.251 | IkBα expression, array signal, Mean (RA-FLS cells [2]; takinib 10 μM, n=4): 33.4 | IkBε expression, array signal, Mean (RA-FLS cells [2]; takinib 10 μM, n=4): 178.592 | JNK1/2 expression, array signal, Mean (RA-FLS cells [2]; takinib 10 μM, n=4): 19.76 | JNK2 expression, array signal, Mean (RA-FLS cells [2]; takinib 10 μM, n=4): 17.3675 | LTBR/TNFRSF3 expression, array signal, Mean (RA-FLS cells [2]; takinib 10 μM, n=4): 22.136 | MYD88 expression, array signal, Mean (RA-FLS cells [2]; takinib 10 μM, n=4): 36.28 | Metadherin/AEG-1 expression, array signal, Mean (RA-FLS cells [2]; takinib 10 μM, n=4): 31.01 | NFκB1 expression, array signal, Mean (RA-FLS cells [2]; takinib 10 μM, n=4): 66.143 | NFκB2 expression, array signal, Mean (RA-FLS cells [2]; takinib 10 μM, n=4): 136.3483 | NGF R/TNFRSF16 expression, array signal, Mean (RA-FLS cells [2]; takinib 10 μM, n=4): 16.68 | RelA/p65 (pS529) array signal, Mean (RA-FLS cells [2]; takinib 10 μM, n=4): 41.57 | RelA/p65 expression, array signal, Mean (RA-FLS cells [2]; takinib 10 μM, n=4): 55.81 | SHARPIN expression, array signal, Mean (RA-FLS cells [2]; takinib 10 μM, n=4): 17.06 | SOCS6 expression, array signal, Mean (RA-FLS cells [2]; takinib 10 μM, n=4): 64.37 | STAT1 (pY701) array signal, Mean (RA-FLS cells [2]; takinib 10 μM, n=4): 15.5275 | STAT1p91 expression, array signal, Mean (RA-FLS cells [2]; takinib 10 μM, n=4): 116.4024 | STAT2 (pY689) array signal, Mean (RA-FLS cells [2]; takinib 10 μM, n=4): 15.96 | STAT2 expression, array signal, Mean (RA-FLS cells [2]; takinib 10 μM, n=4): 148.6364 | STING/TMEM173 expression, array signal, Mean (RA-FLS cells [2]; takinib 10 μM, n=4): 106.8409 | TLR2 expression, array signal, Mean (RA-FLS cells [2]; takinib 10 μM, n=4): 15.725 | TNF RI/TNFRSF1A expression, array signal, Mean (RA-FLS cells [2]; takinib 10 μM, n=4): 14.7 | TNF RII/TNFRSF1B expression, array signal, Mean (RA-FLS cells [2]; takinib 10 μM, n=4): 18.3335 | TRAF2 expression, array signal, Mean (RA-FLS cells [2]; takinib 10 μM, n=4): 17.884 | TRAIL R1/DR4 expression, array signal, Mean (RA-FLS cells [2]; takinib 10 μM, n=4): 21.6 | TRAIL R2/DR5 expression, array signal, Mean (RA-FLS cells [2]; takinib 10 μM, n=4): 91.34 | c-Rel expression, array signal, Mean (RA-FLS cells [2]; takinib 10 μM, n=4): 16.52 | clAP1/BIRC2 expression, array signal, Mean (RA-FLS cells [2]; takinib 10 μM, n=4): 25.47 | clAP2/BIRC3 expression, array signal, Mean (RA-FLS cells [2]; takinib 10 μM, n=4): 18.82 | p53 (pS46) array signal, Mean (RA-FLS cells [2]; takinib 10 μM, n=4): 14.94 | p53 expression, array signal, Mean (RA-FLS cells [2]; takinib 10 μM, n=4): 17.85 | number of NF-κB signaling proteins significantly altered (RA-FLS cells [2]; takinib, out of 45 profiled): 20 | GROα (CXCL1) secretion (RA-FLS cells [3]; p < 0.002): reduced | ICAM secretion (RA-FLS cells [3]; p < 0.03): reduced | G-CSF secretion (RA-FLS cells [3]; p < 0.04): reduced | MIP-1α/MIP-1β secretion (RA-FLS cells [3]; p = 0.11): modest change

— publication PMC6918687, “Pharmacological inhibition of TAK1, with the selective inhibitor takinib, alleviates clinical manifestation of arthritis in CIA mice” (Arthritis Research & Therapy, 2019)
